# Experimental data taken from patent publication US10253002B2, “Compounds and methods of treating infections” (Neoculi Pty Ltd., priority 2013, dated 2019).
# “And” between values parts separate entries of the source, which are not always exact repeats. Equal values may be shown once.
# Legend:
# Assay in all cases: Broth microdilution MIC, Example 7 (NCL812 and analogues)
# MRSA = assay type: cell-based, Staphylococcus aureus; conditions: 24 hours, duplicate lines per compound
# Summary of the method: (§1)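 MICs in μg/ml were read as growth inhibition by eye, checked at 600 nm absorbance against drug-free wells, following CLSI broth microdilution. Strains: two MRSA, two VRE; duplicates, repeated once more when results diverged beyond one dilution step.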
# VRE = assay type: cell-based, Enterococcus spp.; conditions: 24 hours, duplicate lines per compound
# Summary of the method: as §1
# Escherichia coli = assay type: cell-based; conditions: E. coli; 24 hours; duplicate lines per compound
# Pseudomonas aeruginosa = assay type: cell-based; conditions: P. aeruginosa; 24 hours; duplicate lines per compound
Compound,"MIC (μg/ml) at 24 hours, MRSA 1 (MRSA)","MIC (μg/ml) at 24 hours, MRSA 2 (MRSA) [µg/mL]","MIC (μg/ml) at 24 hours, VRE 1 (VRE) [µg/mL]","MIC (μg/ml) at 24 hours, VRE 2 (VRE)","MIC (μg/ml) at 24 hours, E. coli (Escherichia coli) [µg/mL]","MIC (μg/ml) at 24 hours, P. aeruginosa (Pseudomonas aeruginosa) [µg/mL]"
Cl.N=C(NN=Cc1ccc2[nH]ccc2c1)NN=Cc1ccc2[nH]ccc2c1 [NCL 146],8 µg/mL,16,16,16 µg/mL,>128,>128
Cl.N=C(NN=Cc1cnc2ccccc2n1)NN=Cc1cnc2ccccc2n1 [NCL 147],>128 µg/mL,>128,>128,>128 µg/mL,>128,>128
Cl.N=C(NN=Cc1ccc(C=CCC(=O)O)cc1)NN=Cc1ccc(C=CCC(=O)O)cc1 [NCL 148],>128 µg/mL,>128,>128,>128 µg/mL,>128,>128
Cl.N=C(N/N=C/c1ccncc1)N/N=C/c1ccncc1 [NCL 149],>128 µg/mL,>128,>128,>128 µg/mL,>128,>128
COc1ccc(C=CC=NNC(=N)NN=CC=Cc2ccc(OC)cc2)cc1.Cl [NCL 150],128 µg/mL,128,>128,>128 µg/mL,>128,>128
Cl.N=C(NN=Cc1ccc(O)cc1)NN=Cc1ccc(O)cc1 [NCL 151],64 µg/mL,64,128,64 µg/mL,>128,>128
Cc1cccc(C=NNC(=N)NN=Cc2cccc(C)c2O)c1O.Cl [NCL 152],>128 µg/mL,>128,>128,>128 µg/mL,>128,>128
CCC(=NNC(=N)NN=C(CC)c1ccc(Cl)cc1)c1ccc(Cl)cc1.Cl [NCL 153],32 µg/mL,16,8,8 µg/mL,>128,>128
CCCCC(=NNC(=N)NN=C(CCCC)c1ccc(Cl)cc1)c1ccc(Cl)cc1.Cl [NCL 154],>128 µg/mL,>128,>128,>128 µg/mL,>128,>128
C/C(=N\NC(=N)N/N=C(\C)c1ccc(Br)cc1)c1ccc(Br)cc1.Cl [NCL 155],8 µg/mL,8,16,8 µg/mL,>128,>128
CCCC(=NNC(=N)NN=C(CCC)c1ccc(Cl)cc1)c1ccc(Cl)cc1.Cl [NCL 156],>128 µg/mL,>128,>128,>128 µg/mL,>128,>128
Cl.N=C(NN=Cc1ccc(Cl)cc1N)NN=Cc1ccc(Cl)cc1N [NCL 157],2 µg/mL,2,2,2 µg/mL and 4 µg/mL,>128,>128
CCC(=NNC(=N)NN=C(CC)c1ccc(Cl)cc1O)c1ccc(Cl)cc1O.Cl [NCL 158],4 µg/mL,4,4,4 µg/mL,>128,>128
Cl.N=C(NN=C(c1ccc(Cl)cc1O)C1CCCC1)NN=C(c1ccc(Cl)cc1O)C1CCCC1 [NCL 159],64 µg/mL,128,16,128 µg/mL,>128,>128
Cl.N=C(NN=Cc1ccc(OC(F)(F)F)cc1)NN=Cc1ccc(OC(F)(F)F)cc1 [NCL 160],32 µg/mL and 64 µg/mL,128,16,64 µg/mL,>128,>128
CC(=NNC(=N)NN=C(C)c1ccc(N2CCNCC2)cc1)c1ccc(N2CCNCC2)cc1.Cl [NCL 161],64 µg/mL and 128 µg/mL,128,128,128 µg/mL,>128,>128
CCO/C(N)=N/N=C(\C)c1ccc(Cl)cc1 [NCL 162],>128 µg/mL,128,>128,>128 µg/mL,>128,>128
Cl.N=C(NN=C1C(=O)Nc2ccccc21)NN=C1C(=O)Nc2ccccc21 [NCL 163],>128 µg/mL,>128,>128,>128 µg/mL,>128,>128
CC(=NNC(=N)NN=C(C)c1ccc(Cl)cc1N)c1ccc(Cl)cc1N.Cl [NCL 164],>128 µg/mL,>128,>128,>128 µg/mL,>128,>128
Cl.Cl.Cl.N=C(NN=C(CN)c1ccccc1)NN=C(CN)c1ccccc1 [NCL 165],>128 µg/mL,>128,>128,>128 µg/mL,>128,>128
Cl.N=C(NN=Cc1ccc(SC(F)(F)F)cc1)NN=Cc1ccc(SC(F)(F)F)cc1 [NCL 166],32 µg/mL,64,8,128 µg/mL,>128,>128
Cl.N=C(NN=C(C(=O)O)c1ccccc1)NN=C(C(=O)O)c1ccccc1 [NCL 167],>128 µg/mL,>128,>128,>128 µg/mL,>128,>128
